Values after ≈ are worked out from the molar mass of the structure shown. Active and inactive are the calls of the source. The calls are words filed in the database; no cut-off is given here.
Legend:
[1] = Toxicity in po dosed F1 C57Bl6 x CBA mouse assessed as lethal dose; assay type: organism-based; conditions: in vivo
[2] = system: Staphylococcus epidermidis; assay: Antibacterial activity against clinical isolate Staphylococcus epidermidis NKC 37/1 assessed as reduction in microbial growth incubated for 24 hrs by broth microdilution method; assay type: functional
[3] = system: Staphylococcus epidermidis; assay: Antibacterial activity against clinical isolate Staphylococcus epidermidis assessed as reduction in microbial growth incubated for 24 hrs by broth microdilution method; assay type: functional
Klebsiella aerogenes = assay: Antibacterial activity against clinical isolate Enterobacter aerogenes NKC 8 assessed as reduction in microbial growth incubated for 24 hrs by broth microdilution method; assay type: functional
Staphylococcus aureus [4] = assay: In vivo antibacterial activity against Staphylococcus aureus N-10 infected in Po dosed SHK mouse model of sepsis assessed as survival measured after 14 days; assay type: functional; conditions: N-10, 336 h, time 14 day
Staphylococcus aureus [5] = assay: Antibacterial activity against clinical isolate Staphylococcus aureus 1812 assessed as reduction in microbial growth incubated for 24 hrs by broth microdilution method; assay type: functional
[6] = Toxicity in female rat assessed as mortality at 2000 mg/kg, po; assay type: organism-based; conditions: in vivo
[7] = Cytotoxicity against human MSC assessed as reduction in cell viability incubated for 72 hrs by MTT assay; assay type: toxicity, cell-based; conditions: MSC cells
[8] = Toxicity in po dosed rat assessed as lethal dose; assay type: organism-based; conditions: in vivo
Salmonella typhimurium = assay: Antibacterial activity against Salmonella typhimurium TA100 assessed as reduction in microbial growth incubated for 24 hrs by broth microdilution method; assay type: functional, Salmonella enterica subsp. enterica serovar Typhimurium; conditions: Salmonella enterica
Cedecea davisae = assay: Antibacterial activity against clinical isolate Cedecea davisae 1813 assessed as reduction in microbial growth incubated for 24 hrs by broth microdilution method; assay type: functional
Staphylococcus aureus [9] = assay: In vivo antibacterial activity against Staphylococcus aureus N-10 infected in SHK mouse model of sepsis assessed as survival at 16 to 18 mg/kg, po measured after 14 days relative to control; assay type: functional, organism-based; conditions: dose 16-18 mg/kg, time 14.0 day
[10] = Cytotoxicity against human HSF assessed as reduction in cell viability incubated for 72 hrs by MTT assay; assay type: toxicity, cell-based; conditions: HSF cells
Topoisomerase IV = Topoisomerase IV (Staphylococcus aureus, UniProt P0C1S7+P0C1U9); assay: Inhibition of Staphylococcus aureus topoisomerase-IV assessed as reduction in decatenation using kinetoplast DNA as substrate incubated for 30 mins by ethidium bromide staining based agarose gel electrophoresis method; assay type: protein-complex assay
Staphylococcus aureus [11] = assay: In vivo antibacterial activity against Staphylococcus aureus N-10 infected in SHK mouse model of sepsis assessed as animal death at 2 to 4 mg/kg, po measured after 5 to 14 days; assay type: functional, organism-based; conditions: dose 2-4 mg/kg, time 5-14 day
Staphylococcus aureus [12] = assay: Potency index ratio of ciprofloxacin ED50 to test compound ED50 for invivo antibacterial activity against Staphylococcus aureus N-10 infected in Po dosed SHK mouse model of sepsis; assay type: functional
[13] = Toxicity in male rat assessed as mortality at 2000 mg/kg, po; assay type: organism-based; conditions: in vivo
Pseudomonas aeruginosa [14] = assay: Antibacterial activity against Pseudomonas aeruginosa ATCC 27853 assessed as reduction in microbial growth incubated for 24 hrs by broth microdilution method; assay type: functional
Escherichia coli [15] = assay: Antibacterial activity against Escherichia coli ATCC 25922 assessed as reduction in microbial growth incubated for 24 hrs by broth microdilution method; assay type: functional
Micrococcus luteus = assay: Antibacterial activity against clinical isolate Micrococcus luteus assessed as reduction in microbial growth incubated for 24 hrs by broth microdilution method; assay type: functional
[16] = Genotoxicity in Salmonella typhimurium TA102 by Ames test; assay type: toxicity; conditions: salmonella enterica subsp. enterica serovar typhimurium
Klebsiella pneumoniae = assay: Antibacterial activity against clinical isolate Klebsiella pneumoniae 1678 assessed as reduction in microbial growth incubated for 24 hrs by broth microdilution method; assay type: functional
[17] = Cytotoxicity against human CHL assessed as reduction in cell viability incubated for 72 hrs by MTT assay; assay type: toxicity, cell-based; conditions: CHL cells
Staphylococcus aureus [18] = assay: Antibacterial activity against clinical isolate Staphylococcus aureus 4721 assessed as reduction in microbial growth incubated for 24 hrs by broth microdilution method; assay type: functional
[19] = Genotoxicity in Salmonella typhimurium TA98 by Ames test; assay type: toxicity; conditions: salmonella enterica subsp. enterica serovar typhimurium
Pseudomonas aeruginosa [20] = assay: Antibacterial activity against clinical isolate Pseudomonas aeruginosa NKC 17 assessed as reduction in microbial growth incubated for 24 hrs by broth microdilution method; assay type: functional
[21] = system: Staphylococcus auricularis; assay: Antibacterial activity against clinical isolate Staphylococcus auricularis NKC 7 assessed as reduction in microbial growth incubated for 24 hrs by broth microdilution method; assay type: functional
Staphylococcus aureus [22] = assay: Antibacterial activity against clinical isolate methicillin resistant Staphylococcus aureus 4771 assessed as reduction in microbial growth incubated for 24 hrs by broth microdilution method; assay type: functional
[23] = system: Staphylococcus haemolyticus; assay: Antibacterial activity against clinical isolate Staphylococcus haemolyticus 1464 assessed as reduction in microbial growth incubated for 24 hrs by broth microdilution method; assay type: functional
Enterococcus faecalis = assay: Antibacterial activity against clinical isolate Enterococcus faecalis 1465 assessed as reduction in microbial growth incubated for 24 hrs by broth microdilution method; assay type: functional
Escherichia coli [24] = assay: Antibacterial activity against clinical isolate Escherichia coli NKC 1 assessed as reduction in microbial growth incubated for 24 hrs by broth microdilution method; assay type: functional
Bacillus subtilis = assay: Antibacterial activity against Bacillus subtilis 168 assessed as reduction in microbial growth incubated for 24 hrs by broth microdilution method; assay type: functional
[25] = system: Staphylococcus haemolyticus; assay: Antibacterial activity against clinical isolate Staphylococcus haemolyticus NKC 31/2 assessed as reduction in microbial growth incubated for 24 hrs by broth microdilution method; assay type: functional
DNA gyrase [26] = molecular target: T1, DNA gyrase (Staphylococcus aureus, UniProt P0A0K8+P20831); assay: Inhibition of Staphylococcus aureus DNA gyrase using supercoiled pBR322 DNA as substrate incubated for 60 mins by ethidium bromide staining based agarose gel electrophoresis method; assay type: protein-complex assay
[27] = Toxicity in F1 C57Bl6 x CBA mouse assessed as mortality at 2000 mg/kg, po; assay type: organism-based; conditions: in vivo
Staphylococcus aureus [28] = assay: Antibacterial activity against methicillin sensitive Staphylococcus aureus ATCC 29213 assessed as reduction in microbial growth incubated for 24 hrs by broth microdilution method; assay type: functional
[29] = Genotoxicity in Salmonella typhimurium TA100 by Ames test; assay type: toxicity; conditions: salmonella enterica subsp. enterica serovar typhimurium
DNA gyrase [30] = molecular target: T1, DNA gyrase; assay: Inhibition of Staphylococcus aureus DNA gyrase using relaxed pBR322 DNA as substrate incubated for 30 mins by ethidium bromide staining based agarose gel electrophoresis method; assay type: protein-complex assay

T1 sequence (P0A0K8 whole entry): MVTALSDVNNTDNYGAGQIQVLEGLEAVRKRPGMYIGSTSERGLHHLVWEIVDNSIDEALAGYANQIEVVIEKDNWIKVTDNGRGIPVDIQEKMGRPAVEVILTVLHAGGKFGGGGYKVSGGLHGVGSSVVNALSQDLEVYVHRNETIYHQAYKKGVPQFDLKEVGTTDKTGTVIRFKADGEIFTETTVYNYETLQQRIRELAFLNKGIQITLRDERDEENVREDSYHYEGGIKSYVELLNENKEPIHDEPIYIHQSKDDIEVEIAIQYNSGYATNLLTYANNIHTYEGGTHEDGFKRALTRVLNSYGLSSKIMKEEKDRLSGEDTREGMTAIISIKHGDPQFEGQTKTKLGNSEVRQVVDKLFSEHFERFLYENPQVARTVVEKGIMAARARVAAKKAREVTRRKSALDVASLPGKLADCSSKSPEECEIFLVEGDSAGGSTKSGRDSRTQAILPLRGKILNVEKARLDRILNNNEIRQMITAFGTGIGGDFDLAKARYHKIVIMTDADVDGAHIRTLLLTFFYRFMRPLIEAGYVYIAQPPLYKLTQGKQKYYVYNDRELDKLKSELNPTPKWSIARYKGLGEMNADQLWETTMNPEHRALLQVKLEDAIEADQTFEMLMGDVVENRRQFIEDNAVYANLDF
T1 sequence (P20831 whole entry): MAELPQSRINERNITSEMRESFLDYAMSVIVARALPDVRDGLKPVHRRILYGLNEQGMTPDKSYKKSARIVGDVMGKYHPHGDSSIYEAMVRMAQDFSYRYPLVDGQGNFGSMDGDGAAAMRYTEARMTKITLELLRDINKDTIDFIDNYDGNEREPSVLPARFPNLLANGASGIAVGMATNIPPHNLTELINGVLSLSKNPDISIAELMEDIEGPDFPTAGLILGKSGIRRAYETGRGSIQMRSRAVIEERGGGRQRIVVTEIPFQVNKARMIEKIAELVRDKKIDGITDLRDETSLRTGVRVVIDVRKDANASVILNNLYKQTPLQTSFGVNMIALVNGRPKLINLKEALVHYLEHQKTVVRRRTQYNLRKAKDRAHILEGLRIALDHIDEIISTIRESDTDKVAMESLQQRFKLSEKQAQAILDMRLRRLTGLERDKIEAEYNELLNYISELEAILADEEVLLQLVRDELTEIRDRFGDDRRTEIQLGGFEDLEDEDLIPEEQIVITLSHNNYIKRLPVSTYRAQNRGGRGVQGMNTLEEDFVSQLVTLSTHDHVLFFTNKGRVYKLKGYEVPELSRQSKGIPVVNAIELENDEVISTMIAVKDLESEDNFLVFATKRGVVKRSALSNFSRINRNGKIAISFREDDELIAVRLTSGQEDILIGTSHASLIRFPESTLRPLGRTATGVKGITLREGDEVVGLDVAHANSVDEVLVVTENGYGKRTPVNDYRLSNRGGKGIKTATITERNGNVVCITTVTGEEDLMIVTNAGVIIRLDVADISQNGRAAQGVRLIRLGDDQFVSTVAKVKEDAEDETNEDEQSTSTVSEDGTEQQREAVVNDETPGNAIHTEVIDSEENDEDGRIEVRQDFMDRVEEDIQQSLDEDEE
Topoisomerase IV, sequence (P0C1U9 whole entry): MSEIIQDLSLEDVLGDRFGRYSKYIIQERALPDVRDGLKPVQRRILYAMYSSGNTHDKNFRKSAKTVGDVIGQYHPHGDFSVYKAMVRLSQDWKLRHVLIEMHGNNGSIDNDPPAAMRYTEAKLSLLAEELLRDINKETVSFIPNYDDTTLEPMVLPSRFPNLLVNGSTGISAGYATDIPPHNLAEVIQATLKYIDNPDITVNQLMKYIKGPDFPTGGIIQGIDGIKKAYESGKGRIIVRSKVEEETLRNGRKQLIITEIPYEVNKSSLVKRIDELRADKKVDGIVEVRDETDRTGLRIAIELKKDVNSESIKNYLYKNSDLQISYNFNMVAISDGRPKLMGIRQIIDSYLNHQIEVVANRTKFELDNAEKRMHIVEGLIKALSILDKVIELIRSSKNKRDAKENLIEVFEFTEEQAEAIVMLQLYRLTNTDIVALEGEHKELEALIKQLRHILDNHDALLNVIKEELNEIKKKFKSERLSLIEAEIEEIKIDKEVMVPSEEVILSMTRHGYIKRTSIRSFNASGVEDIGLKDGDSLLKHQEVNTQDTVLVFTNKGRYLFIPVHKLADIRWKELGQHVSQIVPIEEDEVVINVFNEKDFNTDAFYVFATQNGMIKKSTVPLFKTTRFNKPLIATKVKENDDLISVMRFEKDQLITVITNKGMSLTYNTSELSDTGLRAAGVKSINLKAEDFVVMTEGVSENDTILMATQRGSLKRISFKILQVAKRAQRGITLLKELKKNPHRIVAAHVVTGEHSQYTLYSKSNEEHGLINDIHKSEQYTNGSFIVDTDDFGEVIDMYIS
Topoisomerase IV, sequence (P0C1S7 whole entry): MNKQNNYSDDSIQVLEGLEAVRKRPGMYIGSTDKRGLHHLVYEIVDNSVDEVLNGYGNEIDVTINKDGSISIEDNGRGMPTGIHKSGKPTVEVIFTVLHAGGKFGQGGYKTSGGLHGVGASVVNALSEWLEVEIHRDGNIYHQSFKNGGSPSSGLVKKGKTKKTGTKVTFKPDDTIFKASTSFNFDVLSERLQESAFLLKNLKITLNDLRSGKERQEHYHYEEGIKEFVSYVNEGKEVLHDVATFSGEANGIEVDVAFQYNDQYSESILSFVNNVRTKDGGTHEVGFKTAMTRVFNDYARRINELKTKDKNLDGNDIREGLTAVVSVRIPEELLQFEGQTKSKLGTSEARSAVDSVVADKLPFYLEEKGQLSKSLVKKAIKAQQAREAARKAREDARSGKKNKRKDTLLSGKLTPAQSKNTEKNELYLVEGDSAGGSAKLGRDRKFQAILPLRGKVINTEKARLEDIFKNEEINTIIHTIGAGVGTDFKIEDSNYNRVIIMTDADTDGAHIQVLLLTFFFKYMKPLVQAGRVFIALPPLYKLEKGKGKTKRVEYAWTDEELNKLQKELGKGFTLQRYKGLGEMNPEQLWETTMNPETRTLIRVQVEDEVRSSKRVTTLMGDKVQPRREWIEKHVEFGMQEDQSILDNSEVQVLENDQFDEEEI

## Cc1ncc(CN2CCN(c3cc4c(cc3F)c(=O)c(C(=O)O)cn4C3CC3)CC2)c(CO)c1O.Cl
[1]
  LD50: > 2000 mg/kg
[2]
  MIC: 0.5 µg/mL
[3]
  MIC: 2 µg/mL
Klebsiella aerogenes
  MIC: 2 µg/mL
Staphylococcus aureus [4]
  ED50: 7.3 mg/kg
Staphylococcus aureus [5]
  MIC: 1 µg/mL
[6]
  Activity: Non-Toxic
[7]
  CC50 at 72 h: 40.3 µg/mL
[8]
  LD50: > 2000 mg/kg
Salmonella typhimurium
  MIC: 2 µg/mL
Cedecea davisae
  MIC: 1 µg/mL
Staphylococcus aureus [9]
  Activity: Active
[10]
  CC50 at 72 h: 34.5 µg/mL
Topoisomerase IV
  IC50: 397 µM
Staphylococcus aureus [11]
  Activity: inactive
Staphylococcus aureus [12]
  Ratio ED50: 1.5
[13]
  Activity: Non-Toxic
Pseudomonas aeruginosa [14]
  MIC: > 64 µg/mL
Escherichia coli [15]
  MIC: 2 µg/mL
Micrococcus luteus
  MIC: 4 µg/mL
[16]
  Activity: Non-Toxic
Klebsiella pneumoniae
  MIC: 8 µg/mL
[17]
  CC50 at 72 h: 30.9 µg/mL
Staphylococcus aureus [18]
  MIC: 0.5 µg/mL
[19]
  Activity: Non-Toxic
Pseudomonas aeruginosa [20]
  MIC: 16 µg/mL
[21]
  MIC: 0.03 µg/mL
Staphylococcus aureus [22]
  MIC: 1 µg/mL
[23]
  MIC: 1 µg/mL
Enterococcus faecalis
  MIC: 32 µg/mL
Escherichia coli [24]
  MIC: 0.5 µg/mL
Bacillus subtilis
  MIC: 2 µg/mL
[25]
  MIC: 8 µg/mL
DNA gyrase [26]
  IC50: 59.7 µM
[27]
  Activity: Non-Toxic
Staphylococcus aureus [28]
  MIC: 2 µg/mL
[29]
  Activity: Non-Toxic
DNA gyrase [30]
  IC50: 1460 µM

## O=C(O)c1cn(C2CC2)c2cc(N3CCNCC3)c(F)cc2c1=O [CIPROFLOXACIN]
Staphylococcus aureus [4]
  ED50: 11.2 mg/kg
[7]
  CC50 at 72 h: 41.6 µg/mL (≈ 126 µM)
Salmonella typhimurium
  MIC: 1 µg/mL
[10]
  CC50 at 72 h: 52.8 µg/mL (≈ 159 µM)
Pseudomonas aeruginosa [14]
  MIC: 1 µg/mL
[17]
  CC50 at 72 h: 29.3 µg/mL (≈ 88.5 µM)
Bacillus subtilis
  MIC: 0.5 µg/mL
